The target of the test is T1, CDK2/Cyclin E complex (Homo sapiens, UniProt P24941).
T1 construct: purchased Eurofins 14-475
Kind of test: CDK2/Cyclin E fluorescence-based microfluidic mobility shift assay (CDK2 Biochemical Caliper Assay). As to conditions: read-out: Biochemical CDK2/CyclinE Caliper IC50. The essentials: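 Microfluidic mobility-shift readout after EDTA termination measured phosphorylation of fluorescent FL Peptide 18 (1.5 uM final) in a 20 hr room-temperature reaction. Compounds were tested at 11 concentrations (3-fold).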

Turning to `COCc1nc2ccnc(Nc3cc([C@H]4C[C@@H](OC(=O)NC(C)C)CO4)[nH]n3)c2s1` (single isomer, unassigned) [Example 467], the IC50 lay within 100 to 250 nM. Then `Cc1cc(CC(=O)Nc2cc([C@H]3CC[C@@H](OC(=O)[C@@H](N)C(C)C)C3)[nH]n2)on1` (single isomer, unassigned) [Example 468], with 100 to 250 nM; and `Cc1cc(CC(=O)Nc2cc([C@@H]3CC[C@H](OC(=O)[C@@H](N)C(C)C)C3)[nH]n2)on1` (single isomer, unassigned) [Example 469], with 250 to 1000 nM.

On to `COCc1cc(C(=O)Nc2cc([C@H]3CC[C@@H](Oc4nnccc4C4CC4)C3)[nH]n2)n(C)n1` (single isomer, unassigned) [Example 470], for which the IC50 was at most 100 nM. The result for `COCc1cc(C(=O)Nc2cc([C@@H]3CC[C@H](Oc4nnccc4C4CC4)C3)[nH]n2)n(C)n1` (single isomer, unassigned) [Example 471] reads at most 100 nM; that for `COCc1cc(C(=O)Nc2cc([C@H]3CC[C@@H](Oc4cccnc4C(C)C)C3)[nH]n2)n(C)n1` (single isomer, unassigned) [Example 472], 100 to 250 nM. The result for `COCc1cc(C(=O)Nc2cc([C@@H]3CC[C@H](Oc4cccnc4C(C)C)C3)[nH]n2)n(C)n1` (single isomer, unassigned) [Example 473] reads 100 to 250 nM; that for `COCc1cc(C(=O)Nc2cc([C@H]3CC[C@@H](Oc4nnccc4-c4ccccc4)C3)[nH]n2)n(C)n1` (single isomer, unassigned) [Example 474], 100 to 250 nM. For `COCc1cc(C(=O)Nc2cc([C@@H]3CC[C@H](Oc4nnccc4-c4ccccc4)C3)[nH]n2)n(C)n1` (single isomer, unassigned) [Example 475], the IC50 was at most 100 nM. The result for `COCc1cc(C(=O)Nc2cc([C@H]3CC[C@@H](Oc4nnccc4C(F)(F)F)C3)[nH]n2)n(C)n1` (single isomer, unassigned) [Example 476] reads at most 100 nM; that for `COCc1cc(C(=O)Nc2cc([C@@H]3CC[C@H](Oc4nnccc4C(F)(F)F)C3)[nH]n2)n(C)n1` (single isomer, unassigned) [Example 477], at most 100 nM. Consider `COCc1cc(C(=O)Nc2cc([C@@H]3CC[C@H](Oc4c(C)ccnc4C)C3)[nH]n2)n(C)n1` (single isomer, unassigned) [Example 478], for which the IC50 was 1000 to 100000 nM. Then `COCc1cc(C(=O)Nc2cc([C@H]3CC[C@@H](Oc4c(C)ccnc4C)C3)[nH]n2)n(C)n1` (single isomer, unassigned) [Example 479], with 1000 to 100000 nM; and `COCc1cc2c(Nc3cc([C@H]4CC[C@@H](OC(=O)NC(C)C)C4)[nH]n3)nccn2n1` (single isomer, unassigned) [Example 480], with at most 100 nM.

Regarding `COCc1cc2c(Nc3cc([C@@H]4CC[C@H](OC(=O)NC(C)C)C4)[nH]n3)nccn2n1` (single isomer, unassigned) [Example 481], the IC50 is at most 100 nM. Then `Cc1cc(CC(=O)Nc2cc([C@H]3CC[C@@H](NC(=O)[C@@H](O)C(C)C)C3)[nH]n2)on1` (single isomer, unassigned) [Example 482], with 1000 to 100000 nM; and `Cc1cc(CC(=O)Nc2cc([C@@H]3CC[C@H](NC(=O)[C@@H](O)C(C)C)C3)[nH]n2)on1` (single isomer, unassigned) [Example 483], with 250 to 1000 nM; and `Cc1ncccc1O[C@@H]1CC[C@H](c2cc(Nc3nccn4nccc34)n[nH]2)C1` (single isomer, unassigned) [Example 484], with 250 to 1000 nM. The result for `Cc1ncccc1O[C@H]1CC[C@@H](c2cc(Nc3nccn4nccc34)n[nH]2)C1` (single isomer, unassigned) [Example 485] reads at most 100 nM; that for `Cc1ncccc1O[C@@H]1CC[C@H](c2cc(Nc3ncnc4ncccc34)n[nH]2)C1` (single isomer, unassigned) [Example 486], 1000 to 100000 nM; that for `Cc1ncccc1O[C@H]1CC[C@@H](c2cc(Nc3ncnc4ncccc34)n[nH]2)C1` (single isomer, unassigned) [Example 487], at most 100 nM. The result for `COCc1cc(C(=O)Nc2cc([C@H]3CC[C@@H](Oc4cncnc4C)C3)[nH]n2)n(C)n1` (single isomer, unassigned) [Example 490] reads 1000 to 100000 nM; that for `COCc1cc(C(=O)Nc2cc([C@@H]3CC[C@H](Oc4cncnc4C)C3)[nH]n2)n(C)n1` (single isomer, unassigned) [Example 491], 1000 to 100000 nM; that for `COCc1cc(C(=O)Nc2cc([C@H]3CC[C@@H](Oc4cc(C(C)C)cnn4)C3)[nH]n2)n(C)n1` (single isomer, unassigned) [Example 492], at most 100 nM.

`COCc1cc(C(=O)Nc2cc([C@@H]3CC[C@H](Oc4cc(C(C)C)cnn4)C3)[nH]n2)n(C)n1` (single isomer, unassigned) [Example 493]: the IC50 lay within 100 to 250 nM. Regarding `COCc1cc(C(=O)Nc2cc([C@H]3CC[C@@H](Oc4nccnc4C)C3)[nH]n2)n(C)n1` (single isomer, unassigned) [Example 494], the IC50 was 250 to 1000 nM. The result for `COCc1cc(C(=O)Nc2cc([C@@H]3CC[C@H](Oc4nccnc4C)C3)[nH]n2)n(C)n1` (single isomer, unassigned) [Example 495] reads 250 to 1000 nM; that for `c1cncc(O[C@@H]2CC[C@H](c3cc(Nc4ncnc5ncccc45)n[nH]3)C2)c1` (single isomer, unassigned) [Example 498], 1000 to 100000 nM.

Take `c1cncc(O[C@H]2CC[C@@H](c3cc(Nc4ncnc5ncccc45)n[nH]3)C2)c1` (single isomer, unassigned) [Example 499]: the IC50 fell in the range of 250 to 1000 nM. The result for `CC(C)NC(=O)O[C@@H]1CC[C@H](c2cc(Nc3nccn4nc(C(F)(F)F)cc34)n[nH]2)C1` (single isomer, unassigned) [Example 500] reads at most 100 nM. The result for `CC(C)NC(=O)O[C@H]1CC[C@@H](c2cc(Nc3nccn4nc(C(F)(F)F)cc34)n[nH]2)C1` (single isomer, unassigned) [Example 501] reads at most 100 nM; that for `COCc1cc(C(=O)Nc2cc([C@H]3CC[C@@H](Oc4nccnc4C(F)F)C3)[nH]n2)n(C)n1` (single isomer, unassigned) [Example 502], 1000 to 100000 nM. The result for `COCc1cc(C(=O)Nc2cc([C@@H]3CC[C@H](Oc4cccnc4C(F)F)C3)[nH]n2)n(C)n1` (single isomer, unassigned) [Example 503] reads 1000 to 100000 nM; that for `c1cncc(O[C@@H]2CC[C@H](c3cc(Nc4nccn5nccc45)n[nH]3)C2)c1` (single isomer, unassigned) [Example 504], 1000 to 100000 nM. As for `c1cncc(O[C@H]2CC[C@@H](c3cc(Nc4nccn5nccc45)n[nH]3)C2)c1` (single isomer, unassigned) [Example 505], the IC50 was at most 100 nM. The result for `COCc1cc(C(=O)Nc2cc([C@H]3CC[C@@H](Oc4ncccc4C(C)C)C3)[nH]n2)n(C)n1` (single isomer, unassigned) [Example 506] reads at most 100 nM.

Consider `COCc1cc(C(=O)Nc2cc([C@@H]3CC[C@H](Oc4ncccc4C(C)C)C3)[nH]n2)n(C)n1` (single isomer, unassigned) [Example 507], for which the IC50 was at most 100 nM. The result for `COCc1cc(C(=O)Nc2cc([C@H]3CC[C@@H](Oc4nccnc4C(C)C)C3)[nH]n2)n(C)n1` (single isomer, unassigned) [Example 508] reads at most 100 nM.
